According to patent publication US20140024527A1, “HERBICIDAL PYRAZINONES” (E I DU DE NEMOURS AND COMPANY, priority 2011, published 2014):

Assays:
Assay in all cases: Test B postemergence
Format in all cases: in vivo
Conditions in all cases: scale 0 to 100
[1] = system: green foxtail (Setaria viridis)
Text: (§1) Seeds of plant species selected from blackgrass (Alopecurus myosuroides), downy bromegrass (Bromus tectorum), green foxtail (Setaria viridis), Italian ryegrass (Lolium multiflorum), wheat (Triticum aestivum), wild oat (Avena fatua), galium (Galium aparine), bermudagrass (Cynodon dactylon), Surinam grass (Brachiaria decumbens), cocklebur (Xanthium strumarium), corn (Zea mays), large crabgrass (Digitaria sanguinalis), woolly cupgrass (Eriochloa villosa), giant foxtail (Setaria faberii), goosegrass (Eleusine indica), johnsongrass (Sorghum halepense), kochia (Kochia scoparia), lambsquarters (Chenopodium album), morningglory (Ipomoea coccinea), yellow nutsedge (Cyperus esculentus), pigweed (Amaranthus retroflexus), ragweed (Ambrosia elatior), soybean (Glycine max), velvetleaf (Abutilon theophrasti), barley (Hordeum vulgare), canarygrass (Phalaris minor), chickweed (Stellaria media), deadnettle (Lamium amplexicaule) and windgrass (Apera spica-venti) were planted in pots containing Redi-Earth® planting medium (Scotts Company, Marysville, Ohio, USA) comprising spaghnum peat moss, vermiculite, wetting agent and starter nutrients and treated postemergence with test compounds formulated in a non-phytotoxic solvent mixture which included a surfactant. Plants ranged in height from 2 to 18 cm (1- to 4-leaf stage).
(§2) Treated plants and controls were maintained in a greenhouse for 13 to 15 days, after which time all species were compared to controls and visually evaluated. Plant response ratings, summarized in Table B, are based on a scale of 0 to 100 where 0 is no effect and 100 is complete control. A dash (-) response means no test result.

soybean (Glycine max) = system: soybean (Glycine max)
Text: as §1, §2

[2] = system: bermudagrass (Cynodon dactylon)
Text: as §1, §2

[3] = system: lambsquarters (Chenopodium album)
Text: as §1, §2

[4] = system: velvetleaf (Abutilon theophrasti)
Text: as §1, §2

kochia (Kochia scoparia) = system: kochia (Kochia scoparia)
Text: as §1, §2

[5] = system: Surinam grass (Brachiaria decumbens)
Text: as §1, §2

[6] = system: canarygrass (Phalaris minor)
Text: as §1, §2

[7] = system: wheat (Triticum aestivum)
Text: as §1, §2

[8] = system: large crabgrass (Digitaria sanguinalis)
Text: as §1, §2

wild oat (Avena fatua) = system: wild oat (Avena fatua)
Text: as §1, §2

barley (Hordeum vulgare) = system: barley (Hordeum vulgare)
Text: as §1, §2

[9] = system: goosegrass (Eleusine indica)
Text: as §1, §2

[10] = system: Italian ryegrass (Lolium multiflorum)
Text: as §1, §2

galium (Galium aparine) = system: galium (Galium aparine)
Text: as §1, §2

[11] = system: windgrass (Apera spica-venti)
Text: as §1, §2

[12] = system: blackgrass (Alopecurus myosuroides)
Text: as §1, §2

[13] = system: johnsongrass (Sorghum halepense)
Text: as §1, §2

[14] = system: pigweed (Amaranthus retroflexus)
Text: as §1, §2

[15] = system: morningglory (Ipomoea coccinea)
Text: as §1, §2

[16] = system: woolly cupgrass (Eriochloa villosa)
Text: as §1, §2

[17] = system: chickweed (Stellaria media)
Text: as §1, §2

What does the source list for `COCCn1c(-c2cccc(F)c2)c(Cl)nc(C(=O)C2=C(O)CCCC2=O)c1=O` [Compound 4, 5-chloro-6-(3-fluorophenyl)-3-[(2-hydroxy-6-oxo-1-cyclohexen-1-yl)carbonyl]-1-(2-methoxyethyl)-2(1H)pyrazinone]?
Plant response rating, Foxtail, Green ([1]; 31 g ai/ha): 35; Plant response rating, Foxtail, Green ([1]; 62 g ai/ha): 35; Plant response rating, Foxtail, Green ([1]; 125 g ai/ha): 35; Plant response rating, Foxtail, Green ([1]; 250 g ai/ha): 70; Plant response rating, Soybean (soybean (Glycine max); 31 g ai/ha): 55; Plant response rating, Soybean (soybean (Glycine max); 62 g ai/ha): 60; Plant response rating, Soybean (soybean (Glycine max); 125 g ai/ha): 75; Plant response rating, Soybean (soybean (Glycine max); 250 g ai/ha): 75; Plant response rating, Bermudagrass ([2]; 31 g ai/ha): 5; Plant response rating, Bermudagrass ([2]; 62 g ai/ha): 20; Plant response rating, Bermudagrass ([2]; 125 g ai/ha): 35; Plant response rating, Bermudagrass ([2]; 250 g ai/ha): 40; Plant response rating, Lambsquarters ([3]; 31 g ai/ha): 95; Plant response rating, Lambsquarters ([3]; 62 g ai/ha): 98; Plant response rating, Lambsquarters ([3]; 125 g ai/ha): 98; Plant response rating, Lambsquarters ([3]; 250 g ai/ha): 100; Plant response rating, Velvetleaf ([4]; 31 g ai/ha): 50; Plant response rating, Velvetleaf ([4]; 62 g ai/ha): 50; Plant response rating, Velvetleaf ([4]; 125 g ai/ha): 60; Plant response rating, Velvetleaf ([4]; 250 g ai/ha): 75; Plant response rating, Kochia (kochia (Kochia scoparia); 31 g ai/ha): 10; Plant response rating, Kochia (kochia (Kochia scoparia); 62 g ai/ha): 45; Plant response rating, Kochia (kochia (Kochia scoparia); 125 g ai/ha): 55; Plant response rating, Kochia (kochia (Kochia scoparia); 250 g ai/ha): 90; Plant response rating, Surinam Grass ([5]; 31 g ai/ha): 55; Plant response rating, Surinam Grass ([5]; 62 g ai/ha): 60; Plant response rating, Surinam Grass ([5]; 125 g ai/ha): 65; Plant response rating, Surinam Grass ([5]; 250 g ai/ha): 70; Plant response rating, Canarygrass ([6]; 31 g ai/ha): 25; Plant response rating, Canarygrass ([6]; 62 g ai/ha): 40; Plant response rating, Canarygrass ([6]; 125 g ai/ha): 50; Plant response rating, Canarygrass ([6]; 250 g ai/ha): 60; Plant response rating, Wheat ([7]; 31 g ai/ha): 5; Plant response rating, Wheat ([7]; 62 g ai/ha): 20; Plant response rating, Wheat ([7]; 125 g ai/ha): 30; Plant response rating, Wheat ([7]; 250 g ai/ha): 35; Plant response rating, Crabgrass, Large ([8]; 31 g ai/ha): 70; Plant response rating, Crabgrass, Large ([8]; 62 g ai/ha): 75; Plant response rating, Crabgrass, Large ([8]; 125 g ai/ha): 80; Plant response rating, Crabgrass, Large ([8]; 250 g ai/ha): 85; Plant response rating, Oat, Wild (wild oat (Avena fatua); 31 g ai/ha): 5; Plant response rating, Oat, Wild (wild oat (Avena fatua); 62 g ai/ha): 30; Plant response rating, Oat, Wild (wild oat (Avena fatua); 125 g ai/ha): 30; Plant response rating, Oat, Wild (wild oat (Avena fatua); 250 g ai/ha): 40; Plant response rating, Barley (barley (Hordeum vulgare); 31 g ai/ha): 0; Plant response rating, Barley (barley (Hordeum vulgare); 62 g ai/ha): 20; Plant response rating, Barley (barley (Hordeum vulgare); 125 g ai/ha): 20; Plant response rating, Barley (barley (Hordeum vulgare); 250 g ai/ha): 30; Plant response rating, Goosegrass ([9]; 31 g ai/ha): 5; Plant response rating, Goosegrass ([9]; 62 g ai/ha): 45; Plant response rating, Goosegrass ([9]; 125 g ai/ha): 50; Plant response rating, Goosegrass ([9]; 250 g ai/ha): 65; Plant response rating, Ryegrass, Italian ([10]; 31 g ai/ha): 0; Plant response rating, Ryegrass, Italian ([10]; 62 g ai/ha): 0; Plant response rating, Ryegrass, Italian ([10]; 125 g ai/ha): 0; Plant response rating, Ryegrass, Italian ([10]; 250 g ai/ha): 10; Plant response rating, Galium (galium (Galium aparine); 31 g ai/ha): 50; Plant response rating, Galium (galium (Galium aparine); 62 g ai/ha): 50; Plant response rating, Windgrass ([11]; 31 g ai/ha): 5; Plant response rating, Windgrass ([11]; 62 g ai/ha): 30; Plant response rating, Windgrass ([11]; 125 g ai/ha): 40; Plant response rating, Windgrass ([11]; 250 g ai/ha): 65; Plant response rating, Blackgrass ([12]; 31 g ai/ha): 5; Plant response rating, Blackgrass ([12]; 62 g ai/ha): 5; Plant response rating, Blackgrass ([12]; 125 g ai/ha): 5; Plant response rating, Blackgrass ([12]; 250 g ai/ha): 10; Plant response rating, Johnsongrass ([13]; 31 g ai/ha): 60; Plant response rating, Johnsongrass ([13]; 62 g ai/ha): 60; Plant response rating, Johnsongrass ([13]; 125 g ai/ha): 75; Plant response rating, Johnsongrass ([13]; 250 g ai/ha): 85; Plant response rating, Pigweed ([14]; 31 g ai/ha): 65; Plant response rating, Pigweed ([14]; 62 g ai/ha): 80; Plant response rating, Pigweed ([14]; 125 g ai/ha): 90; Plant response rating, Pigweed ([14]; 250 g ai/ha): 98; Plant response rating, Morningglory ([15]; 31 g ai/ha): 90; Plant response rating, Morningglory ([15]; 62 g ai/ha): 95; Plant response rating, Morningglory ([15]; 125 g ai/ha): 95; Plant response rating, Morningglory ([15]; 250 g ai/ha): 95; Plant response rating, Cupgrass, Woolly ([16]; 31 g ai/ha): 50; Plant response rating, Cupgrass, Woolly ([16]; 62 g ai/ha): 70; Plant response rating, Cupgrass, Woolly ([16]; 125 g ai/ha): 75; Plant response rating, Cupgrass, Woolly ([16]; 250 g ai/ha): 85; Plant response rating, Chickweed ([17]; 31 g ai/ha): 5; Plant response rating, Chickweed ([17]; 62 g ai/ha): 10; Plant response rating, Chickweed ([17]; 125 g ai/ha): 15; Plant response rating, Chickweed ([17]; 250 g ai/ha): 45
